In publication PMC11078216, “Discovery of potent and selective activity-based probes (ABPs) for the deubiquitinating enzyme USP30” (RSC Chemical Biology, 2024):

Target: T1, CTSZ (Homo sapiens, UniProt Q9UBR2)
T1 construct: endogenous in cells; host or cells: HEK293T
Experiment: ABPP chemical proteomics (LC-MS/MS) in HEK293T cells
Format: cell-based
Experimental: To explore the selectivity of IMP-2587 and IMP-2586 across the whole proteome, we performed quantitative activity-based protein profiling (ABPP) in HEK293T cells following treatment with IMP-2587 or IMP-2586 (Fig. 3a). After ABP incubation, cells were lysed, and probe-labelled proteins were ligated to biotinylated capture reagents.[27] […] USP30 was outcompeted by corresponding parent inhibitors for each ABP (Fig. 5b and d and Tables S3 and S5, ESI ^†), confirming the high potency and rapid engagement of IMP-2587 and IMP-2586 in cells. […] DESI1 and DESI2 are small ubiquitin-related modifier (SUMO) proteases,[3,29–32] and IMP-2587 and IMP-2586 may offer a starting point for future development of DESI ABPs. […]
The cells were washed with PBS and lysed with lysis buffer (50 μL (1% (v/v) Triton X-100, 0.1% (w/v) sodium dodecyl sulfate (SDS), EDTA-free complete protease inhibitor cocktail (1×, Roche) in PBS on ice for 10 min. The lysates were scraped and transferred to corresponding Lo-Bind Eppendorfs. Each lysate was sonicated for 1 minute, and the samples centrifuges at 5,000 x g at 4 °C for 5 minutes to pellet insoluble cellular debris. The supernatant was collected, and protein concentration was determined using the DC Protein Assay (Bio-Rad) as per manufacturer’s instructions, and normalised to lowest concentrated sample (e.g. 1 mg/mL, using lysis buffer). […]

T1 sequence (Q9UBR2 62-303): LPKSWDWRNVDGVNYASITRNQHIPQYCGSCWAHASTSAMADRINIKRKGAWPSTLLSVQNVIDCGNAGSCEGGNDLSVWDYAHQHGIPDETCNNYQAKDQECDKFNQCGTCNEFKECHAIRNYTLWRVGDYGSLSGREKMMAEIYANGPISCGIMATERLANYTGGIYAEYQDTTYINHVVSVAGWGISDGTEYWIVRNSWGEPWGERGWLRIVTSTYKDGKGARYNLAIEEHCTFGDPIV

| Difference (log2 fold change of enrichment) (compound 1 out-competition with IMP-2587 labelling, HEK293T (Table S3, Fig.5b)) | Structure (SMILES) | Difference (log2 fold change of enrichment) (IMP-2587 labelling vs DMSO, 30 nM, 10 min, HEK293T (Table S2, Fig.5a)) |
| --- | --- | --- |
| – | C#Cc1cccc(-c2cc(NC(=O)CC3CCN(C#N)C3)on2)c1 (centres unmarked) [IMP-2587] | 2.29 |
| -2.01 | N#CN1CC[C@H](CC(=O)Nc2cc(-c3cccc(Cl)c3)no2)C1 [compound 1, reference compound] | – |
